Legend:
Renin (Homo sapiens) [1] = target: T1, Renin (Homo sapiens) (UniProt P00797); test: Inhibition of human renal renin at the concentration of 10e-5 M.
T1 sequence (whole entry): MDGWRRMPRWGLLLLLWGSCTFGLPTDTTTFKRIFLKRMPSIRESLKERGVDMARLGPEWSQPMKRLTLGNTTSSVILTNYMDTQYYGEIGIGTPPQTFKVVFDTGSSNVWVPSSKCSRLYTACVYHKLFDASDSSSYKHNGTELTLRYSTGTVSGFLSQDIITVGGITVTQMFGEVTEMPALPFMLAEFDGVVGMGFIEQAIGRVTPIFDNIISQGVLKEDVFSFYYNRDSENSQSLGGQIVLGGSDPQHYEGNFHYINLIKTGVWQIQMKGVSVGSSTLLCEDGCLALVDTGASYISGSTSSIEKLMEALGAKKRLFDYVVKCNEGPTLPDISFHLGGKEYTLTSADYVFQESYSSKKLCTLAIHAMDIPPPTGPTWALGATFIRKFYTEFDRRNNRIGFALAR

Renin [2] = target: T2, Renin (Homo sapiens, UniProt P00797); test: Inhibition of human renal renin at the pH optimum 6.0.
T2 sequence (P00797 whole entry): T1 sequence (whole entry)

Renin (Homo sapiens) [3] = target: T1, Renin (Homo sapiens); test: The compound was tested for inhibition of human renal renin at the concentration of 10e-5 M (compound with OH epimer)
Renin (Homo sapiens) [4] = target: T1, Renin (Homo sapiens); test: The compound was tested for inhibition of human renal renin at the concentration of 10e-6 M
Renin (Homo sapiens) [5] = target: T1, Renin (Homo sapiens); test: The compound was tested for inhibition of human renal renin at the concentration of 10e-7 M
Pepsin A (Sus scrofa) = Pepsin A (Sus scrofa) (UniProt P00791); test: Inhibition of porcine pepsin; design: concentration or dose not given beside the values; details: concentration not given here
Pepsin A (Sus scrofa), sequence (P00791 60-385 limits assumed): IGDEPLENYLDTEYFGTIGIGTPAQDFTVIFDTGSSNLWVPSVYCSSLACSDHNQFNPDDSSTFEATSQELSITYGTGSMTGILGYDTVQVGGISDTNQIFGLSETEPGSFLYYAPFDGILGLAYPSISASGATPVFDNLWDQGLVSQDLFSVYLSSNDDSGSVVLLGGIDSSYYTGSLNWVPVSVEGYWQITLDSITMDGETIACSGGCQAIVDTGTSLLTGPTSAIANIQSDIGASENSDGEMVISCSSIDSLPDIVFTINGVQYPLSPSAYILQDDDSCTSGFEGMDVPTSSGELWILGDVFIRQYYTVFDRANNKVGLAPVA

Renin [6] = target: T2, Renin; test: The compound was tested for inhibition of human renal renin at the pH optimum 7.4
Renin (Homo sapiens) [7] = target: T1, Renin (Homo sapiens); test: The compound was tested for inhibition of human renal renin at the concentration of 10e-5 M (2:1 mixture of S:R diastereomers at the carbon bearing the hydroxyl group.

Row | SMILES | inhibition (Renin (Homo sapiens) [1]) [%] | IC50 (Renin [2]) [µM] | further results
1 | CC(C)C[C@@H](NC(=O)[C@H](C)NC(=O)[C@H](Cc1ccccc1)NC(=O)OC(C)(C)C)[C@H](O)CNC(C)C | 5 | – | –
2 | CC(C)C[C@@H](NC(=O)[C@H](C)NC(=O)[C@H](Cc1ccccc1)NC(=O)OC(C)(C)C)[C@H](O)CSc1ccc2ccccc2c1 | 23 | – | –
3 | CC(C)C[C@H](NC(=O)[C@H](Cc1c[nH]cn1)NC(=O)[C@H](Cc1ccccc1)NC(=O)OC(C)(C)C)[C@@H](O)CSC1CCCCC1 (stereo in doubt; 56) [listing 1 of 2 here] | – | – | inhibition (Renin (Homo sapiens) [3]): 95%
4 | CC(C)C[C@H](NC(=O)[C@H](Cc1c[nH]cn1)NC(=O)[C@H](Cc1ccccc1)NC(=O)OC(C)(C)C)[C@@H](O)CSC1CCCCC1 (stereo in doubt; 55) [listing 1 of 2 here] | – | – | inhibition (Renin (Homo sapiens) [5]): 78%
5 | CC(C)CC[C@@H](O)[C@H](CC(C)C)NC(=O)[C@H](C)NC(=O)[C@H](Cc1ccccc1)NC(=O)OC(C)(C)C | – | – | inhibition (Renin (Homo sapiens) [3]): 16%
6 | CC(C)CC[C@@H](O)[C@@H](CC(C)C)NC(=O)[C@H](Cc1c[nH]cn1)NC(=O)[C@H](Cc1cccc2ccccc12)NC(=O)OC(C)(C)C | – | – | IC50 (Renin [6]): 0.15 µM; inhibition (Renin (Homo sapiens) [4]): 93%; inhibition (Pepsin A (Sus scrofa)): 6%
7 | CC(C)C[C@@H](NC(=O)[C@H](C)NC(=O)[C@H](Cc1ccccc1)NC(=O)OC(C)(C)C)[C@H](O)CS(=O)(=O)c1ccccc1 | 25 | – | –
8 | CC(C)C[C@@H](NC(=O)[C@H](C)NC(=O)[C@H](Cc1ccccc1)NC(=O)OC(C)(C)C)[C@H](O)CSCCCc1ccccc1 | 88 | 1 | inhibition (Pepsin A (Sus scrofa)): 74%
9 | CC(C)C[C@@H](NC(=O)[C@H](C)NC(=O)[C@H](Cc1ccccc1)NC(=O)OC(C)(C)C)[C@H](O)CNc1ccccc1 | 30 | – | –
10 | CC(C)C[C@@H](NC(=O)[C@H](C)NC(=O)[C@H](Cc1ccccc1)NC(=O)OC(C)(C)C)[C@H](O)COC(C)C | 54 | 7 | –
11 | CC(C)CCC[C@@H](O)[C@@H](CC(C)C)NC(=O)[C@H](C)NC(=O)[C@H](Cc1ccccc1)NC(=O)OC(C)(C)C | 71 | 3.5 | –
12 | CC(C)C[C@@H](NC(=O)[C@H](C)NC(=O)[C@H](Cc1ccccc1)NC(=O)OC(C)(C)C)[C@H](O)CSc1cccc2ccccc12 | 7 | – | –
13 | CC(C)C[C@@H](NC(=O)[C@H](C)NC(=O)[C@H](Cc1ccccc1)NC(=O)OC(C)(C)C)[C@H](O)CSCCc1ccccc1 | 73 | 4.5 | –
14 | CC(C)C[C@@H](NC(=O)[C@H](C)NC(=O)[C@H](Cc1ccccc1)NC(=O)OC(C)(C)C)[C@H](O)C[S+]([O-])c1ccccc1 (some centres undefined) | 12 | – | –
15 | CC(C)C[C@@H](NC(=O)[C@H](Cc1c[nH]cn1)NC(=O)[C@H](Cc1ccc2ccccc2c1)NC(=O)OC(C)(C)C)[C@H](O)CSC1CCCCC1 | – | – | IC50 (Renin [6]): 0.04 µM; inhibition (Renin (Homo sapiens) [5]): 85%; inhibition (Pepsin A (Sus scrofa)): 0%
16 | CC(C)C[C@@H](NC(=O)[C@H](C)NC(=O)[C@H](Cc1ccccc1)NC(=O)OC(C)(C)C)[C@H](O)CSCc1ccccc1 | 57 | 10 | inhibition (Pepsin A (Sus scrofa)): 96%
17 | CC(C)C[C@@H](NC(=O)[C@H](C)NC(=O)[C@H](Cc1ccccc1)NC(=O)OC(C)(C)C)[C@H](O)CCc1ccccc1 | – | – | inhibition (Renin (Homo sapiens) [7]): 35%
18 | CC(C)COC[C@@H](O)[C@@H](CC(C)C)NC(=O)[C@H](C)NC(=O)[C@H](Cc1ccccc1)NC(=O)OC(C)(C)C | 59 | 7 | inhibition (Pepsin A (Sus scrofa)): 68%
19 | CC(C)C[C@@H](NC(=O)[C@H](Cc1ccc(O)cc1)NC(=O)[C@H](Cc1ccccc1)NC(=O)OC(C)(C)C)[C@H](O)CSc1ccccc1 | 21 | – | inhibition (Pepsin A (Sus scrofa)): 11%
20 | CC(C)CC[C@H](O)[C@H](CC(C)C)NC(=O)[C@H](C)NC(=O)[C@H](Cc1ccccc1)NC(=O)OC(C)(C)C | 85 | 2 | –
21 | CC(C)C[C@@H](NC(=O)[C@H](C)NC(=O)[C@H](Cc1ccccc1)NC(=O)OC(C)(C)C)[C@H](O)COc1ccccc1 | 48 | – | inhibition (Pepsin A (Sus scrofa)): 27%
22 | CC(C)C[C@@H](NC(=O)[C@H](C)NC(=O)[C@H](Cc1ccccc1)NC(=O)OC(C)(C)C)[C@H](O)CSCc1cccc2ccccc12 | 48 | – | –
23 | CC(C)C[C@@H](NC(=O)[C@H](C)NC(=O)[C@H](Cc1ccccc1)NC(=O)OC(C)(C)C)[C@H](O)CSc1ccc(C(C)(C)C)cc1 | 15 | – | –
24 | CC(C)C[C@@H](NC(=O)[C@H](Cc1ccccc1)NC(=O)[C@H](Cc1ccccc1)NC(=O)OC(C)(C)C)[C@H](O)CSc1ccccc1 | 48 | – | inhibition (Pepsin A (Sus scrofa)): 11%

The next lines start with results.

Row | inhibition (Renin (Homo sapiens) [1]) [%] | IC50 (Renin [2]) [µM] | SMILES | further results
25 | 97 | 0.6 | CC(C)CCC[C@@H](O)[C@@H](CC(C)C)NC(=O)[C@H](Cc1c[nH]cn1)NC(=O)[C@H](Cc1ccccc1)NC(=O)OC(C)(C)C | –
26 | – | 0.09 | CC(C)C[C@@H](NC(=O)[C@H](Cc1c[nH]cn1)NC(=O)[C@H](Cc1ccccc1)NC(=O)OC(C)(C)C)[C@H](O)CS(=O)(=O)C1CCCCC1 | inhibition (Renin (Homo sapiens) [4]): 92%; inhibition (Renin (Homo sapiens) [5]): 51%
27 | 89 | 1.5 | CC(C)CC[C@@H](O)[C@@H](CC(C)C)NC(=O)[C@H](Cc1c[nH]cn1)NC(=O)[C@H](Cc1ccccc1)NC(=O)OC(C)(C)C | –
28 | 94 | 0.65 | CC(C)COC[C@@H](O)[C@@H](CC(C)C)NC(=O)[C@H](Cc1c[nH]cn1)NC(=O)[C@H](Cc1ccccc1)NC(=O)OC(C)(C)C | inhibition (Pepsin A (Sus scrofa)): 0%
29 | 89 | 1.5 | CC(C)CSC[C@@H](O)[C@@H](CC(C)C)NC(=O)[C@H](C)NC(=O)[C@H](Cc1ccccc1)NC(=O)OC(C)(C)C | –
30 | 94 | – | CC(C)CCS(=O)(=O)C[C@@H](O)[C@@H](CC(C)C)NC(=O)[C@H](Cc1c[nH]cn1)NC(=O)[C@H](Cc1ccccc1)NC(=O)OC(C)(C)C | IC50 (Renin [6]): 0.5 µM
31 | – | 0.6 | CC(C)CC[C@@H](O)[C@@H](CC(C)C)NC(=O)[C@H](Cc1c[nH]cn1)NC(=O)[C@H](Cc1ccc2ccccc2c1)NC(=O)OC(C)(C)C | inhibition (Renin (Homo sapiens) [4]): 87%
32 | – | 0.035 | CC(C)C[C@H](NC(=O)[C@H](Cc1c[nH]cn1)NC(=O)[C@H](Cc1ccccc1)NC(=O)OC(C)(C)C)[C@@H](O)CSC1CCCCC1 (stereo in doubt; 55) [listing 2 of 2 here] | –
33 | 94 | 1 | CC(C)C[C@@H](NC(=O)[C@H](C)NC(=O)[C@H](Cc1ccccc1)NC(=O)OC(C)(C)C)[C@H](O)CSC1CCCC1 | –
34 | – | 0.013 | CC(C)C[C@@H](NC(=O)[C@H](Cc1c[nH]cn1)NC(=O)[C@H](Cc1cccc2ccccc12)NC(=O)OC(C)(C)C)[C@H](O)CSC1CCCCC1 | inhibition (Renin (Homo sapiens) [5]): 85%
35 | – | 0.52 | CC(C)C[C@H](NC(=O)[C@H](Cc1c[nH]cn1)NC(=O)[C@H](Cc1ccccc1)NC(=O)OC(C)(C)C)[C@@H](O)CSC1CCCCC1 (stereo in doubt; 56) [listing 2 of 2 here] | –
36 | 46 | – | CC(C)C[C@@H](NC(=O)[C@H](C)NC(=O)[C@H](Cc1ccccc1)NC(=O)OC(C)(C)C)[C@H](O)C[S+]([O-])C1CCCCC1 (some centres undefined) | –
37 | – | 0.081 | CC(C)C[C@@H](NC(=O)[C@H](Cc1c[nH]cn1)NC(=O)[C@H](Cc1ccccc1)NC(=O)OC(C)(C)C)[C@H](O)CSC(C)C | inhibition (Renin (Homo sapiens) [4]): 92%; inhibition (Renin (Homo sapiens) [5]): 54%
38 | 56 | 8 | CC(C)C[C@@H](NC(=O)[C@H](C)NC(=O)[C@H](Cc1ccccc1)NC(=O)OC(C)(C)C)[C@H](O)CSc1ccccc1 | –
39 | 98 | – | CC(C)C[C@@H](NC(=O)[C@H](Cc1c[nH]cn1)NC(=O)[C@H](Cc1ccccc1)NC(=O)OC(C)(C)C)[C@H](O)CS(=O)(=O)CC(C)C | IC50 (Renin [6]): 0.35 µM
40 | 90 | 0.7 | CC(C)C[C@H](NC(=O)[C@H](C)NC(=O)[C@H](Cc1ccccc1)NC(=O)OC(C)(C)C)[C@@H](O)CSC(C)C | inhibition (Pepsin A (Sus scrofa)): 73%
41 | 76 | 2 | CC(C)C[C@@H](NC(=O)[C@H](C)NC(=O)[C@H](Cc1ccccc1)NC(=O)OC(C)(C)C)[C@H](O)CS(=O)(=O)C1CCCCC1 | –
42 | 88 | 3 | CC(C)C[C@@H](NC(=O)[C@H](C)NC(=O)[C@H](Cc1ccccc1)NC(=O)OC(C)(C)C)[C@H](O)CSC(C)(C)C | –
43 | 21 | – | CC(C)C[C@@H](NC(=O)[C@H](C)NC(=O)[C@H](Cc1ccccc1)NC(=O)OC(C)(C)C)[C@H](O)CSc1ccc(Br)cc1 | –
44 | 35 | – | CC(C)C[C@@H](NC(=O)[C@H](Cc1c[nH]cn1)NC(=O)[C@H](Cc1ccccc1)NC(=O)OC(C)(C)C)[C@H](O)CNC(C)C | –
45 | 96 | 0.96 | CC(C)C[C@@H](NC(=O)[C@H](Cc1c[nH]cn1)NC(=O)[C@H](Cc1ccccc1)NC(=O)OC(C)(C)C)[C@H](O)CSc1ccccc1 | inhibition (Pepsin A (Sus scrofa)): 0%
46 | 94 | 0.8 | CC(C)C[C@@H](NC(=O)[C@H](C)NC(=O)[C@H](Cc1ccccc1)NC(=O)OC(C)(C)C)[C@H](O)CSC1CCCCC1 | inhibition (Pepsin A (Sus scrofa)): 100%
47 | 93 | 1.5 | CC(C)CCSC[C@@H](O)[C@@H](CC(C)C)NC(=O)[C@H](C)NC(=O)[C@H](Cc1ccccc1)NC(=O)OC(C)(C)C | –
48 | 85 | 1.5 | CC(C)C[C@@H](NC(=O)[C@H](Cc1c[nH]cn1)NC(=O)[C@H](Cc1ccccc1)NC(=O)OC(C)(C)C)[C@H](O)COC(C)C | inhibition (Pepsin A (Sus scrofa)): 0%
49 | 99 | 0.2 | CC(C)C[C@@H](NC(=O)[C@H](Cc1c[nH]cn1)NC(=O)[C@H](Cc1ccccc1)NC(=O)OC(C)(C)C)[C@H](O)CS(=O)(=O)C(C)C | inhibition (Pepsin A (Sus scrofa)): 3%
